Source: publication PMC3415323 (International Journal of Nanomedicine, 2012)

Biological target: p-gp (Homo sapiens, UniProt P08183)
Experiment: Effect of p-gp inhibitors on cellular transport of HSYA solution
Assay type: in vitro ADME
Conditions: Figure 5A

Sequence of p-gp (P08183 whole entry): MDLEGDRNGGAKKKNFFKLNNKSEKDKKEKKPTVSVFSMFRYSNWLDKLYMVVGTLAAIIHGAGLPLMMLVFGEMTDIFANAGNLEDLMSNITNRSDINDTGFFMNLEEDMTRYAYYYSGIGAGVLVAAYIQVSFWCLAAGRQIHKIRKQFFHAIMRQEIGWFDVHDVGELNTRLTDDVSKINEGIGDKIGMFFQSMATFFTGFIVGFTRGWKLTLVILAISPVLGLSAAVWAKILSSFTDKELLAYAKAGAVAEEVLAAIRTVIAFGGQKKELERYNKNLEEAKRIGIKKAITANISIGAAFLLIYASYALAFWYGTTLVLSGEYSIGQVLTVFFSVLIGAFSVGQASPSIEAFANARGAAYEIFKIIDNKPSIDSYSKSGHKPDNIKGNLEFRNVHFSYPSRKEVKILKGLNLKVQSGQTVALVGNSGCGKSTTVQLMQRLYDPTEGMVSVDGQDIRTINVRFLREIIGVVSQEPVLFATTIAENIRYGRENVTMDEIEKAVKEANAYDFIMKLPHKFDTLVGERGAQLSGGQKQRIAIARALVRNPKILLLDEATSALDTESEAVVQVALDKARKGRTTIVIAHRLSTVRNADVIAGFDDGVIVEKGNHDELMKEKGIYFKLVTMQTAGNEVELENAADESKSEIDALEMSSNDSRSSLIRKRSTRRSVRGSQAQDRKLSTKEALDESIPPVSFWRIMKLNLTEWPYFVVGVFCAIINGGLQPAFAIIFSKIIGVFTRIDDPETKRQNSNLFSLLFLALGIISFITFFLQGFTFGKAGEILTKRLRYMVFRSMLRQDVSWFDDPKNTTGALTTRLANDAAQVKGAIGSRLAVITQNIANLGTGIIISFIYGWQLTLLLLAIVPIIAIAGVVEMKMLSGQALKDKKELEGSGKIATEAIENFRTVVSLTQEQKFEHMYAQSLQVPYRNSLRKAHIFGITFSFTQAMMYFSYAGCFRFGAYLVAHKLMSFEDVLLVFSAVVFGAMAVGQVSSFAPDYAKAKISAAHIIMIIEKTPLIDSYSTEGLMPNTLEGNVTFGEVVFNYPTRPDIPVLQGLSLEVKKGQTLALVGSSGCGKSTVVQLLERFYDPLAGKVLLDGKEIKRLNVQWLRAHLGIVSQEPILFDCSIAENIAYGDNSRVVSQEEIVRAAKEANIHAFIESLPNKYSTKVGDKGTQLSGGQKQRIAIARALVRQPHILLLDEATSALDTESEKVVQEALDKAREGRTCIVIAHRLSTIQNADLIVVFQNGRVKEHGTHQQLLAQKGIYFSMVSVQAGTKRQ

Cc1nc(C)c(C)nc1C [TMP, tetramethylpyrazine]
effect on the absorption of HSYA on Caco-2 cells: significantly increased
